Measurements as given in US20210078958A1, “QUINAZOLINE DERIVATIVE AND USE THEREOF” (MEDSHINE DISCOVERY INC., priority 2017, published 2021).
Like-named read-outs stand apart in the source and are kept apart here.

Assays:
HER2 (ErbB2) = HER2 (ErbB2) (Homo sapiens, UniProt P04626); test: in vitro enzyme activity, HER2 (ErbB2); assay type: biochemical; conditions: human ErbB2, [γ-33P]ATP, poly(Glu, Tyr) substrate
Protocol: (§1) The purpose of this assay is to detect the in vitro inhibitory activity of compounds on HER1 (ErbB1), HER2 (ErbB2), and HER4 (ErbB4). The enzymes used in this assay are human ErbB1, ErbB2 and ErbB4. Eurofins Pharma Discovery Service provided the method for activity detection.
(§2) Steps and Method of the Assay (96-Well Plate):
(§3) A buffer solution of the test compounds in a dilution of 5-fold (5 μL), polypeptide substrate poly(Glu, Tyr) (4:1) (2.5 μL), ErbB (4-20 ng, 2.5 μL), MnCl2 (50 mM, 1.25 μL), dH2O (3.75 μL), and [γ-^33P]ATP (10 μL) were added, and incubated at 30° C. for 10 minutes. The reaction was terminated by adding 3% phosphoric acid. 10 μL of the sample was taken and transferred to Filtermate A. The filter disc was washed 3 times with 75 mM phosphoric acid and once with methanol. The filter disc was transferred to a sealed plastic bag and the scintillation mixture (4 mL) was added. The intensity of the emitted photon was detected by a scintillation luminescence counter. The CPM (times/min) of the enzyme sample was compared with the CPM of the internal control sample. The level of photon intensity reflected the degree of the tyrosine kinase activity.

HER4 (ErbB4) = HER4 (ErbB4) (Homo sapiens, UniProt Q15303); test: in vitro enzyme activity, HER4 (ErbB4); assay type: biochemical; conditions: human ErbB4, [γ-33P]ATP, poly(Glu, Tyr) substrate
Protocol: as §1, §2, §3

NCI-N87 cell = test: inhibitory activity on cell proliferation (Cell-Titer-Glo), NCI-N87; assay type: cell-based; conditions: Homo sapiens
Excerpt: (§4) Purpose of the assay: to detect the inhibitory activity of the test compounds on cell proliferation.
(§5) Principle of the assay: the luciferase in a Cell-Titer-Glo reagent produces oxidized luciferin with luciferin, oxygen and ATP as reaction substrates, and releases energy in the form of light. Since the luciferase reaction requires ATP, the total amount of light generated by the reaction is proportional to the total amount of ATP that reflects cell viability.
(§6) Cell Titer-Glo cell viability assay kit with luminescence (Promega #G7573)
(§7) According to the schematic diagram of the cell seed plate, cells were seeded in a 384- or 96-well plate at a density of 1000 cells per well and 25 μL per well, and 25 μL of PBS was added to the wells near edge of the place where no cells were seeded.
(§8) (1) The stock solution of the compounds has a concentration of 10 mM, and the compounds were diluted with DMSO to an initial concentration of 4 mM. The compounds were added to the plate with stock solution of compounds, 9 μL per well.
(§9) (2) The compounds were diluted with an ECHO liquid workstation, where 125 nL of compounds were added to each well of the cell plate, 125 nL of DMSO was added to each of the cell well in columns 2 and 23, and 125 nL of DMSO was added to each PBS well in columns 1 and 24.
(§10) 2.3 After addition of the compounds, the cell plate was centrifuged at 1000 rpm for 1 min, and then placed in a 37° C., 5% CO2 incubator for incubation for 3 days.
(§11) The cell plate was taken out from the incubator and equilibrated at room temperature for 30 minutes. 25 μL of Cell-Titer-Glo reagent was added to each well, shaken for one minute to allow well mixed, and centrifuged at 1000 rpm for 1 minute. After 10 minutes, the plate was read on PerkinElmer Envision, and the […] reading time was set to 0.2 second.

HER1 (ErbB1) = HER1 (ErbB1) (Homo sapiens, UniProt P00533); test: in vitro enzyme activity, HER1 (ErbB1); assay type: biochemical; conditions: human ErbB1, [γ-33P]ATP, poly(Glu, Tyr) substrate
Protocol: as §1, §2, §3

BT-474 cell = test: inhibitory activity on cell proliferation (Cell-Titer-Glo), BT-474; assay type: cell-based; conditions: Homo sapiens
Excerpt: as §4, §5, §6, §7, §8, §9, §10, §11

[1] = test system: subcutaneous xenograft tumor of human gastric cancer NCI-N87 cells; test: Assay Example 5: in vivo pharmacodynamics, NCI-N87 xenograft; set-up: species or system BALB/c nude mouse; conditions: 0.5 mg/kg
Protocol: Purpose of the assay: to evaluate the in vivo efficacy of test compounds disclosed herein on subcutaneous xenograft tumor of human gastric cancer NCI-N87 cells in a BALB/c nude mouse model.
Animals of the assay: female BALB/c nude mice, 6-8 weeks old, weighing 18-22 grams; supplier: shanghai sippr bk laboratory animals Ltd.
(§12) Human gastric cancer NCI-N87 cells were cultured in monolayer in vitro. The culture conditions were RPMI-1640 medium plus 10% fetal bovine serum, 100 U/mL penicillin, 100 μg/mL streptomycin, 37° C., 5% CO2. The passaging was performed by conventional digestion with trypsin-EDTA twice a week. When the cell saturation was 80%-90%, the cells were collected, counted and inoculated.
0.2 mL (10×10^6) of NCI-N87 cells (PBS+Matrigel, 1:1) were inoculated subcutaneously on the right back of each mouse. When the average tumor volume reached 156 mm^3, administration to each group was started.
The test compounds were formulated into a 0.05 mg/mL clear solution in the solvents of 10% NMP (N-methylpyrrolidone)+10% ethylene glycol stearate+80% water.
(§13) The assay index is to investigate whether tumor growth is inhibited, delayed or cured. Tumor diameter was measured twice a week with a vernier caliper. The calculation formula of tumor volume is: V=0.5a×b^2, wherein a and b represent the long and short diameters of tumor, respectively.
(§14) The antitumor efficacy of the compounds were evaluated by TGI (%) or tumor proliferation rate T/C (%). TGI (%) reflects the tumor growth inhibition rate. TGI (%) is calculated as follows: TGI (%)=[1−(average tumor volume at the end of administration for a certain treatment group−average tumor volume at the beginning of administration for this treatment group)/(average tumor volume at the end of treatment for a solvent control group−average tumor volume at the beginning of administration for this solvent control group)]×100%.
Tumor proliferation rate T/C (%): the calculation formula is as follows: T/C (%)=average tumor volume at the end of administration for a certain treatment group/average tumor volume at the end of treatment for the solvent control group×100%.
(§15) Statistical analysis included the mean and standard error (SEM) of tumor volume at each time point in each group (See Table 5-1 for specific data). […] The comparison between two groups was analyzed by T-test, and the comparison among three or more groups was analyzed by one-way ANOVA. […] All data analysis was carried out with SPSS 17.0. p<0.05 was considered a significant difference.

[2] = Assay Example 7: pharmacokinetics in mice; assay type: in vivo; conditions: mouse, female BALB/c mice, plasma, dose not given
Protocol: Purpose of the assay: this assay aims to investigate in vivo plasma pharmacokinetics of the example compounds disclosed herein and the reference compound in female BALB/c mice after the single intravenous injection and intragastric administration thereof.
Animals of the assay: female BALB/c nude mice, 7-9 weeks old, weighted 17-23 grams; supplier: shanghai sippr bk laboratory animals Ltd.
Sample collection: at each time point, a 0.03 mL blood sample was collected from the saphenous vein of the test animal by puncture, and the actual blood collection time was recorded. All blood samples were added into commercial EDTA-K2 anticoagulation tubes with a specification of 1.5 mL (the supplier was Jiangsu KANGJIAN Medical Apparatus Co., Ltd.). Within half an hour after the blood sample was collected, the blood sample was centrifuged at 3000 g at 4° C. for 10 minutes, and the supernatant plasma was drawn, quickly placed in dry ice, and stored in a refrigerator at −80° C. for LC-MS/MS analysis.
Data analysis: Plasma concentrations were processed using a non-compartmental model of WinNonlin™ Version6.3 (Pharsight, MountainView, Calif.) pharmacokinetic software, and pharmacokinetic parameters Cmax, Tmax, T1/2, and AUC0-last were calculated using a linear log trapezoid method.

[3] = test system: subcutaneous xenograft tumor of human gastric cancer NCI-N87 cells; assay type: in vivo; conditions: for Tumor volume (mm3) (Day 21) / T/C (%) / TGI (%): 3 mg/kg, NCI-N87 xenograft; for Tumor volume (mm3) (Day 21): Mean ± SEM; for T/C (%) / TGI (%): day 21; for body weight of test animals (reference index for drug toxicity): mouse, in vivo
Protocol: Purpose of the assay: to evaluate the in vivo efficacy of compounds to be tested on subcutaneous xenograft tumor of human gastric cancer NCI-N87 cells in a BALB/c nude mouse model.
Animals of the assay: female BALB/c nude mice, 6-8 weeks old, weighted 18-22 grams; supplier: shanghai sippr bk laboratory animals Ltd.
as §12, with “streptomycin and 2 mM glutamine,” for “streptomycin,”, “by the” for “by”
0.2 mL (10×10^6 cells) of NCI-N87 cells were inoculated subcutaneously on the right back of each nude mouse (PBS+Matrigel, 1:1). When the average tumor volume reached 145 mm^3, administration to each group was started.
The test compounds were formulated into a 0.3 mg/mL clear solution in the solvents of 10% NMP (N-methylpyrrolidone)+10% ethylene glycol stearate+80% water.
as §13
as §14, with “(%) or relative tumor proliferation” for “(%) or tumor proliferation”, “solvent control group)][…].” for “solvent control group)]×100%.”
Relative tumor proliferation rate T/C (%): the calculation formula is as follows: T/C %=TRTV/CRTV (TRTV: RTV for the treatment group; CRTV: RTV for the negative control group). Relative tumor volume (RTV) is calculated based on tumor measurement results. The calculation formula is RTV=Vt/V0, wherein V0 is the average tumor volume measured at the beginning of administration (i.e., d0) to each group, Vt is the average tumor volume at a certain measurement, and the data for TRTV and CRTV were taken on the same day.
The tumor weight was measured after the assay is over and the T/C weight percentage was calculated. T weight and C weight represent the tumor weight of the administration group and the vehicle control group, respectively.
as §15, with “group.” for “group (See Table 5-1 for specific data).”

[4] = NCI-N87, footnote d: initial dilution concentration of compounds is 10 μM
[5] = BT-474, footnote d: initial dilution concentration of compounds is 10 μM

Sequence of HER2 (ErbB2) (P04626 23-1255): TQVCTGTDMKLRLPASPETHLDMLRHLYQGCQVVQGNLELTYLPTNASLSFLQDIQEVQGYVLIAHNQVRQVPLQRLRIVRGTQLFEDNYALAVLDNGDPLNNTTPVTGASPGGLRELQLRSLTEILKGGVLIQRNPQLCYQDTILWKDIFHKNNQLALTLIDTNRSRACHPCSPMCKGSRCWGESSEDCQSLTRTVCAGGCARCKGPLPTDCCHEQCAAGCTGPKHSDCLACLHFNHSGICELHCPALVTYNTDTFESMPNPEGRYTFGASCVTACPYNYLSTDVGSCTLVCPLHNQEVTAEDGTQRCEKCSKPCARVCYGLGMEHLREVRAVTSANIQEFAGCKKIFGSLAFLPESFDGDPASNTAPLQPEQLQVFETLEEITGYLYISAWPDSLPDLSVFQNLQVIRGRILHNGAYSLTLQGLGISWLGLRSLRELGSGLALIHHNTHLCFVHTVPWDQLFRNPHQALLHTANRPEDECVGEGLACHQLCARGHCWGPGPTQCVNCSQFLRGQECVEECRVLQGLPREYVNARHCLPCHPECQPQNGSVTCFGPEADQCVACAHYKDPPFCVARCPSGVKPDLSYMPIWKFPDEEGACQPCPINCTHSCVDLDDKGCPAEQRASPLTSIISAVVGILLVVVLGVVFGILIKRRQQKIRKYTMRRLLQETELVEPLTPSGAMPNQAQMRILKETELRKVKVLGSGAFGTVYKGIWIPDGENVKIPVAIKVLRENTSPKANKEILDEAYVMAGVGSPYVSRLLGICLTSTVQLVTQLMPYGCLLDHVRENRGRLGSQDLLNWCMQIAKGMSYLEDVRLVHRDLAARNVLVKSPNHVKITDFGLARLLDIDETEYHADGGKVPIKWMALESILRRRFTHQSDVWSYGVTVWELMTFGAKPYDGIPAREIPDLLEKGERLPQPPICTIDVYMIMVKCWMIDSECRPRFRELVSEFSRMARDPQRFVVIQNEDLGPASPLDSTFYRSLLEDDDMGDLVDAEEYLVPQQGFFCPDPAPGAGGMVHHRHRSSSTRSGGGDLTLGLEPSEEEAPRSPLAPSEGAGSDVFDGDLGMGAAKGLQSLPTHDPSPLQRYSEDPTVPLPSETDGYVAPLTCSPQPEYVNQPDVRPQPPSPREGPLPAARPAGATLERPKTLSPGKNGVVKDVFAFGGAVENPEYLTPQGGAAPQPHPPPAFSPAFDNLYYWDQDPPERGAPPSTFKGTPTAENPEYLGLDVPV
Sequence of HER1 (ErbB1) (P00533 25-1210): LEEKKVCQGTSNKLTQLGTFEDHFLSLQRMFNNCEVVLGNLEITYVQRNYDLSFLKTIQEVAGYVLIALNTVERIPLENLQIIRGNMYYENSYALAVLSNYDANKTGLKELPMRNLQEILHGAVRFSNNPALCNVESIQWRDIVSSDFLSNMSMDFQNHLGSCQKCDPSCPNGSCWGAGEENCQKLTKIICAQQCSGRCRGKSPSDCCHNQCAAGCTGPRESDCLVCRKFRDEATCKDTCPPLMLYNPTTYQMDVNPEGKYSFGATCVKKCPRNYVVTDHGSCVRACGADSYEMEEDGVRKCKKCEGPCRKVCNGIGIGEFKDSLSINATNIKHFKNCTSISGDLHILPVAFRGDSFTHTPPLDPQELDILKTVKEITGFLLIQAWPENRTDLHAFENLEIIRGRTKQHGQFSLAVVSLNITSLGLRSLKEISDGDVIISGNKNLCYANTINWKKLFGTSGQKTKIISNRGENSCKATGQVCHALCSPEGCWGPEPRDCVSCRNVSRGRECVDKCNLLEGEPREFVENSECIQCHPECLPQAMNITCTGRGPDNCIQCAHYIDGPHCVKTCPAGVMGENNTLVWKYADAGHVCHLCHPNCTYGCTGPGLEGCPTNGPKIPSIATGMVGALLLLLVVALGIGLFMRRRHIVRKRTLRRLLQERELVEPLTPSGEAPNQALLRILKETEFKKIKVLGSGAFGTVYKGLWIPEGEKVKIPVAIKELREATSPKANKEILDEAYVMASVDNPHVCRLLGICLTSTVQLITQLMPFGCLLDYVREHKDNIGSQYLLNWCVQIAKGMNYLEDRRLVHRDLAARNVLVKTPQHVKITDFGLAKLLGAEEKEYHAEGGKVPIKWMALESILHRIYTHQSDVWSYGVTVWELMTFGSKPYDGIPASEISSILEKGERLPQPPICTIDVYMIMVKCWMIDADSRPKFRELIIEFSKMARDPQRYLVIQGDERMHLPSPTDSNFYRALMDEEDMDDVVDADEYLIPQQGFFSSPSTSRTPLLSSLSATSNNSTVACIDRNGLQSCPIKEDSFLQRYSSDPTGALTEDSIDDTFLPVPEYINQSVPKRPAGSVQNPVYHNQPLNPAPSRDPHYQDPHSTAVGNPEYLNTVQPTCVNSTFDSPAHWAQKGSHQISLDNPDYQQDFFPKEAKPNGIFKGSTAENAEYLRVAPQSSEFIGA
Sequence of HER4 (ErbB4) (Q15303 26-1308): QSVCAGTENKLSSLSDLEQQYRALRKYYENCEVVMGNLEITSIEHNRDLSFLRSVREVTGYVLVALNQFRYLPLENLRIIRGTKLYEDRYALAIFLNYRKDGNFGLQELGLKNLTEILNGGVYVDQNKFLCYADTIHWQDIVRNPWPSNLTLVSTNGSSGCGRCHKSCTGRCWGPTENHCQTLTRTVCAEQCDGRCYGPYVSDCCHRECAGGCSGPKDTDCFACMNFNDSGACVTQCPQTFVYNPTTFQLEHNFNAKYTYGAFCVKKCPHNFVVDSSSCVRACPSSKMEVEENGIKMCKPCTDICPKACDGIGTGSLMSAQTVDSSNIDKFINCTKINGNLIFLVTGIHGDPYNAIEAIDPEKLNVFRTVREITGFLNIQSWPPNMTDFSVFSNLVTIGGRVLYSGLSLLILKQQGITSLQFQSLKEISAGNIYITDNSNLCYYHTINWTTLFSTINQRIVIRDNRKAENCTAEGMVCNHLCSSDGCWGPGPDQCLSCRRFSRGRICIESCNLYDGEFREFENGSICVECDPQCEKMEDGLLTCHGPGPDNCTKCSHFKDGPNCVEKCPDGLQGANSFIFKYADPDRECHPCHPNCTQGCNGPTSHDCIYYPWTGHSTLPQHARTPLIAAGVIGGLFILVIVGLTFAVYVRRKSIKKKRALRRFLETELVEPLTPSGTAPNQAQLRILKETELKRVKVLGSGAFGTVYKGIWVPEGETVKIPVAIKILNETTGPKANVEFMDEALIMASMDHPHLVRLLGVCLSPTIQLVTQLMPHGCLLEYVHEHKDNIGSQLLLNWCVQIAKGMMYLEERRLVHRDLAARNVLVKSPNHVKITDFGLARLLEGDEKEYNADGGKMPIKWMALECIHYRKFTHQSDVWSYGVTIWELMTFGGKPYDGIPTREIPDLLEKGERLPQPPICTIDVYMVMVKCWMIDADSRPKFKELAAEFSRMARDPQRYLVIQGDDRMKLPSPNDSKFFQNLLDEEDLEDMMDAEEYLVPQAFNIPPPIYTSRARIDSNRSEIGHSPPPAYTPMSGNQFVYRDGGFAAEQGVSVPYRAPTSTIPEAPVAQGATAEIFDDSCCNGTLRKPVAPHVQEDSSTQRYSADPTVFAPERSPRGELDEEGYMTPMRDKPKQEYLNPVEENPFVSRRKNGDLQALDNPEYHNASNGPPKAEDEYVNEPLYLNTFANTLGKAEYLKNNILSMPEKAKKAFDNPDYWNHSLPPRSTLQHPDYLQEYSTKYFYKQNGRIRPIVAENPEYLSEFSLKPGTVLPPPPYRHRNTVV

SMILES | IC50 (HER2 (ErbB2)) [nM] | IC50 (HER4 (ErbB4)) [nM] | IC50 (HER1 (ErbB1)) [nM] | IC50 (NCI-N87 cell; [4]) [nM] | IC50 (BT-474 cell; [5]) [nM] | further results
C=CC(=O)N1[C@@H]2CC[C@H]1C[C@H](Oc1cc3c(Nc4ccc(Cl)c(Cl)c4F)ncnc3cc1OCC)C2 [Example 21] | 5 | 3 | 12 |  |  | IC50 (NCI-N87 cell; NCI-N87, 72 h, incubation for 3 days, Cell-Titer-Glo): 0.35 nM; IC50 (BT-474 cell; BT-474, 72 h, incubation for 3 days, Cell-Titer-Glo): 0.46 nM
C=CC(=O)N1CCC(Nc2cc3c(Nc4ccc(F)c(Cl)c4)ncnc3cc2OC)CC1 [Control compound 2] |  |  |  |  |  | Tumor volume (mm^3) (Day 21) ([1]; NCI-N87 xenograft, Mean + SEM): 541 ± 88 mm^3; T/C (%) ([1]; day 21): 89.35%; TGI (%) ([1]; day 21): 18.83%; Tmax ([2]; oral): 2 h; half-life ([2]; oral): 1.5 h; AUC(0-t) ([2]; oral plasma exposure): 82 µM·h; Cmax ([2]; oral plasma exposure): 15.3 µM
C=CC(=O)N1C[C@H]2C[C@@H](C1)[C@H]2Oc1cc2c(Nc3ccc(Cl)c(Cl)c3F)ncnc2cc1OCCO [Example 13] | 8 | 7 | 5 | 1.6 | 2 | 
C=CC(=O)N1C[C@H]2C[C@@H](C1)[C@H]2Nc1cc2c(Nc3ccc(Cl)c(Cl)c3F)ncnc2cc1OC [Example 9] | 13 | 8 | 9 | 0.9 | 2.1 | 
C=CC(=O)N1C[C@H]2C[C@@H](C1)[C@H]2Oc1cc2c(Nc3ccc(Cl)c(Cl)c3F)ncnc2cc1OCCCN1CCOCC1 [Example 18] | 12 | 5 | 9 | 1.3 | 2.4 | 
C=CC(=O)N1C[C@H]2C[C@@H](C1)[C@H]2Oc1cc2c(Nc3ccc(Cl)c(Cl)c3F)ncnc2cc1OC [Example 1] | 3 | 10 | 2 | < 1.5 |  | Tumor volume (mm3) (Day 21) [3]: 122 ± 11 mm3; T/C (%) [3]: 16.62%; TGI (%) [3]: 103.98%; body weight of test animals (reference index for drug toxicity) [3]: significantly better than that of the control compound Poziotinib
C=CC(=O)N1[C@@H]2CC[C@H]1C[C@@H](Oc1cc3c(Nc4ccc(Cl)c(Cl)c4F)ncnc3cc1OC)C2 [Example 7] | 69 | 61 | 40 | 1.5 |  | Tumor volume (mm3) (Day 21) [3]: 188 ± 9 mm3; T/C (%) [3]: 26.10%; TGI (%) [3]: 92.63%; body weight of test animals (reference index for drug toxicity) [3]: significantly better than that of the control compound Poziotinib
